Literature values in patent US8192721B2, “Compositions useful for reducing toxicity associated with gadolinium-based contrast agents” (Verrow Pharmaceuticals, Inc., priority 2007, dated 2012).

What was measured:
[1] = healthy subjects with normal renal function
[2] = compared with underivatized β-cyclodextrin

Row | Molecule | plasma half-life [1] | nephrotoxicity [2]
1 | [Gd] [gadolinium] | approximately 90 minutes | 
2 | β-cyclodextrin sulfobutyl ethers [Captisol®] |  | does not exhibit the nephrotoxicity
